Data from patent US11878028B1 (HENAN GENUINE BIOTECH CO., LTD., priority 2023, dated 2024).

Experiments:
[1] = test system: human lung cancer NCI-H1975 (EGFRL858R/T790M) cell line; test: Anti-tumor effect of azvudine with osimertinib in NCI-H1975 subcutaneous xenograft mice (Example 1); assay type: in vivo, BALB/c nude mice; conditions: for Tumor volume on the 28th day of grouping administration: day 28; for Tumor volume on the 28th day of grouping administration / Tumor weight: mean ± standard error; for Tumor weight / Tweight/Cweight: end of experiment; for Tumor weight: combination; for Tweight/Cweight: tumor weight of treatment group / solvent control group
From the text: Animals were kept in IVC (independent ventilation system) cages (4 per cage) in SPF grade animal room. The number of animals in the cage, gender, strain, date of receipt, administration regimen, experiment number, group and date of start of the experiment were indicated on the animal information card for each cage. All cages, bedding and drinking water were sterilized before use. Cages, feed and drinking water were changed twice a week. […] The bedding was corn cobs, and was changed twice a week. • Food: Experimental animals had free access to food (irradiation sterilized, dry pelleted food) throughout the whole experimental process. • Drinking water: Experimental animals can freely drink sterilized water. • Cage identification: The number of animals in the cage, gender, strain, date of receipt, • administration regimen, experiment number, group and date of start of the experiment should be indicated on the animal information card for each cage. • Animal identification: Experimental animals were identified with ear tags.
When the cell fusion degree of each bottle reached more than 90%, the cells were digested and resuspended in PBS. The cells were counted to reach a concentration of 5×10^7/ml by using a cell counter, and each mouse was injected with 0.1 ml of cell suspension. The 8th generation cells were inoculated subcutaneously in nude mice. When the tumor grew to about 800 mm^3, the tumor was taken out and cut into a size of 2*2*2 mm^3. The chopped tumor was inoculated on the right back of each mouse. When the average volume of the tumor measured after inoculation reached 100-120 mm^3, grouping administration was started using a random stratified grouping method according to the tumor volume and animal body weight. The lung cancer cell line model was randomly divided into 4 experimental groups with 8 mice in each group. The mice were continuously administered for 28 days after grouping.
(Ti: mean tumor volume of the treatment group on the i^th day of administration, T0: mean tumor volume of the treatment group on the 0th day of administration; Vi: mean tumor volume of the solvent control group on the i^th day of administration, V0: mean tumor volume of the solvent control group on the 0th day of administration)
At the end of the experiment, the surviving animals were euthanized, and the tumor tissue was taken, and weighed to obtain the tumor weight.

[2] = test system: human lung cancer NCI-H1975 (EGFRL858R/T790M) cell line; test: Anti-tumor effect of azvudine with doxitinib in NCI-H1975 subcutaneous xenograft mice (Example 2); assay type: in vivo, BALB/c nude mice; conditions: for Tumor volume / Tumor volume on the 20th day: mean ± SEM, azvudine 1 mg/kg, doxitinib […], combination 1 + […]; for Tumor volume: in mm³
From the text: Animals were kept in IVC (independent ventilation system) cages (4 per cage) in SPF grade animal room. The number of animals in the cage, gender, strain, date of receipt, administration regimen, experiment number, group and date of start of the experiment were indicated on the animal information card for each cage. All cages, bedding and drinking water were sterilized before use. Cages, feed and drinking water were changed twice a week. The breeding environment and light conditions were as follows: • Temperature: 20˜26° C. • Humidity: 40˜70% • Lighting cycle: 12 hours of light, 12 hours of no light (the light was turned on at 8 am and turned off at 8 pm) • Cage: Cages were made of polycarbonate, with a volume of 325 mm×210 mm×180 mm. The bedding was corn cobs, and was changed twice a week. • Food: Experimental animals had free access to food (irradiation sterilized, dry pelleted food) throughout the whole experimental process. • Drinking water: Experimental animals can freely drink sterilized water. • Cage identification: The number of animals in the cage, gender, strain, date of receipt, • administration regimen, experiment number, group and date of start of the experiment should be indicated on the animal information card for each cage. • Animal identification: Experimental animals were identified with ear tags.
NCI-H1975 cells were cultured in RPMI 1640 medium containing 10% fetal bovine serum in a 37° C. and 5% CO2 incubator. The cells were routinely passaged once a week. When the cell saturation reached 80%-90% and the number achieved the requirement, the cells were collected, counted and inoculated.
0.1 mL (5×10^6) of NCI-H1975 cells were subcutaneously inoculated on the right back of each mouse, and the grouping administration was started when the average tumor volume reached about 154 mm 3.
The experimental index was to investigate whether tumor growth was inhibited, delayed or cured. Tumor diameter was measured with a vernier caliper twice a week or every other day. The tumor volume was calculated according to the formula of: V=0.5a×b^2, where a and b represented the long diameter and short diameter of the tumor, respectively.
The anti-tumor efficacy of the compounds was evaluated by TGI (%) or relative tumor proliferation rate T/C (%). TGI (%) reflected the inhibition rate of tumor growth.
Relative tumor proliferation rate T/C (%) was calculated according to the formula as follows: T/C %=TRTV/CRTV×100% (TRTV represented the average RTV of the treatment group; CRTV Represented the Average RTV of the Negative Control Group). Relative Tumor Volume (RTV) was calculated based on the results of measurement of tumor according to the formula of RTV=Vt/V0, where V0 represented the tumor volume measured during grouping administration (i.e. d0), and Vt represented the tumor volume obtained in a certain measurement, and TRTV and CRTV were collected from the data on the same day.
Statistical analysis included mean and standard error (SEM) of tumor volume at each time point for each group (see Table 3 for specific data). […] The comparison between two groups was analyzed by T-test, and the comparison between three or more groups was analyzed by one-way ANOVA. All data analysis was performed with Prism. p<0.05 was considered significant difference.

[3] = azvudine 1 mpk, osimertinib 2.5 mpk, combination 2.5 + 1 mpk
[4] = azvudine 1 mpk, osimertinib 2.5 mpk
[5] = based on tumor volume on the 20th day after administration

| Molecule | Tumor volume on the 28th day of grouping administration [1, 3] [mm^3] | Tumor weight [1, 4] [mg] | Tweight/Cweight [1] [%] | TGITV (tumor volume inhibition rate) ([1]; mouse, in vivo) [%] | T/C (relative tumor proliferation rate) [2, 5] [%] | TGI [2, 5] [%] | Tumor volume ([2]; day 0 after administration) | Tumor volume ([2]; day 3 after administration) | Tumor volume ([2]; day 6 after administration) | Tumor volume ([2]; day 10 after administration) | Tumor volume ([2]; day 13 after administration) | Tumor volume ([2]; day 17 after administration) | Tumor volume on the 20th day ([2]; day 20 after administration) | Tumor volume ([2]; day 20 after administration) | Tumor volume ([2]; day 24 after administration) | Effect on tumor growth (in words) ([2]; NCI-H1975 xenograft tumor mouse model) | Effect on tumor proliferation (in words) ([1]; NCI-H1975 tumor-bearing mouse model) | TGITV (tumor volume inhibition rate) ([1]; after 28 days of administration, azvudine 1 mpk, osimertinib 2.5 mpk, combination 2.5 + 1 mpk) [%] | TGITV (tumor volume inhibition rate) ([1]; after 28 days of administration, azvudine 1 mpk, osimertinib 2.5 mpk, combination 2.5 + 1 mpk, listed as azvudine) [%] |
| --- | --- | --- | --- | --- | --- | --- | --- | --- | --- | --- | --- | --- | --- | --- | --- | --- | --- | --- | --- |
| C=CC(=O)Nc1cc(Nc2nccc(-c3cn(C)c4ccccc34)n2)c(OC)cc1N(C)CCN(C)C [Osimertinib, osimertinib] | 377.9 ± 90.8 | 716.9 ± 207.4 | 40.3 | 66.4 | – | – | – | – | – | – | – | – | – | – | – | – | – | – | – |
| doxitinib | – | – | – | – | 15.77 | 87.50 | 154 ± 12 | 180 ± 19 | 232 ± 27 | 277 ± 34 | 350 ± 65 | 395 ± 86 | 492 ± 109 mm3 | 492 ± 109 | 802 ± 220 | – | – | – | – |
| [N-]=[N+]=N[C@]1(CO)O[C@@H](n2ccc(N)nc2=O)[C@@H](F)[C@@H]1O [Azvudine, azvudine] | 628.3 ± 165.4 | 879.3 ± 226.9 | 49.5 | – | – | 54.01 | 154 ± 11 | 252 ± 25 | 447 ± 46 | 614 ± 78 | 774 ± 106 | 1,102 ± 118 | 1,396 ± 162 mm3 | 1,396 ± 162 | 2,382 ± 305 | inhibitory effect on tumor growth in a dose-dependent manner | inhibitory effect on tumor proliferation in a dose-dependent manner | 35.7 | 35.7 |
